Source: patent publication US20250388565A1, “ESTROGEN RECEPTOR ALPHA DEGRADERS AND METHODS OF USE THEREOF” (Relay Therapeutics, Inc., priority 2022, published 2025)

target: T1, ERα protein (HiBiT-tagged) in ESR1_HiBiT KI MCF7 cells (Homo sapiens, UniProt P03372); assay: Nano Glo HiBiT Lytic Degradation Assay; type: cell-based; conditions: 6 hours with compound, 14-point dose response 1:3, bell-shape curve fit, half-maximal effect of first Hill model, read-out: MCF7 ESR1 HiBiT - (DC50)
T1 sequence (P03372 1-595): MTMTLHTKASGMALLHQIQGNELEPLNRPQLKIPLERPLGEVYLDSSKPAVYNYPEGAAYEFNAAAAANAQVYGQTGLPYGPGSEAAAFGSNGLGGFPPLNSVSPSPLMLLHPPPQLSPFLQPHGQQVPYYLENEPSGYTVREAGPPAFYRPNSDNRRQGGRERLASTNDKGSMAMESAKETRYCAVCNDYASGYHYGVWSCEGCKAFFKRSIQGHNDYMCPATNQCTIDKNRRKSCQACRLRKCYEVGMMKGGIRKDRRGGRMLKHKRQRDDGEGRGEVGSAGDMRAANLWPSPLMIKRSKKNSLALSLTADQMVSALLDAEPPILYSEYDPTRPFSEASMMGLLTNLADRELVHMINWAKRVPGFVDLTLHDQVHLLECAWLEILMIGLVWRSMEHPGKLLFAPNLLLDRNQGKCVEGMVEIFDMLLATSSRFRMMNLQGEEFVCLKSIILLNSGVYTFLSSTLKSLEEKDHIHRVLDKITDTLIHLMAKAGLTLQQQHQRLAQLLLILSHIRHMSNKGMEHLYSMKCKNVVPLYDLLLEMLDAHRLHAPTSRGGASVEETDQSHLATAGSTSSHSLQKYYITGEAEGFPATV
Description: Selected compounds of the present disclosure were tested in a Nano Glo HiBiT Lytic Degradation Assay to measure the level of ERα protein degradation in MCF7 cells.
Cell culture: ESR1_HiBiT KI MCF7 cells were maintained in growth media without antibiotics. Cells were maintained in exponential growth phase, between 40% and 90% confluency.
Cell seeding: Cells were counted using a Vi-Cell and seeded in a 384-well flat-bottom microplate (cell culture-treated) at 4000 cells/well in 25 μL of growth medium using a BioTek MultiFlo Multimode Dispenser. Plates were incubated for 24 h at 37° C., 5% CO2, >95% relative humidity.
Compound preparation: Compounds were screened as 14-point dose response curves 1:3 dilutions. DMSO is used as the vehicle control and all wells were normalized to the same final DMSO concentration (0.1% v/v). Compounds were dosed using an Echo Acoustic Liquid Handler, 25 nL of 1000× (10 mM top concentration) DMSO stock/well. Cells were incubated with compounds for 6 hours at 37° C., 5% CO2, >95% relative humidity. Each compound was run in duplicate.
Nano Glo HiBiT Lytic Degradation Assay: HiBiT-tagged ERα protein levels were quantified using a Nano Glo HiBiT Lytic Degradation Assay following the manufacturer's protocol. Briefly, the Nano-Glo® HiBiT Lytic Reagent was prepared by diluting the LgBiT Protein reagent (1:100) and the Nano-Glo® HiBiT Lytic Substrate (1:50) into Nano-Glo® HiBiT Lytic Buffer at room temperature. The 384-well microplate were equilibrated to room temperature and 25 μL of Nano-Glo® HiBiT Lytic Reagent was added to each well. Samples were mixed by placing the 384-well microplate on an orbital shaker for 10 minutes. Luminescence was measured using an EnVision 2105 Multimode Plate Reader.
Data processing and analysis: Background signal (wells containing growth medium without cells) was subtracted from individual relative light units (RLU) values and the resulting values were normalized to the DMSO control well values. Dose responses were analyzed with Genedata Screener® using a bell-shape curve fit and the concentrations corresponding to the half-maximal effect of the first Hill model were used as DC50 values.

SMILES | DC50 [nM]
O=C1CC[C@H](N2Cc3cc(N4CCN(CC5CCN(c6ccc([C@@H]7c8ccc(O)cc8CO[C@@H]7c7ccc8c(c7)CCC8)cc6)CC5)CC4)ccc3C2=O)C(=O)N1 [Compound I-365, (S)-3-(5-(4-((1-(4-((3S,4R)-3-(2,3-dihydro-1H-inden-5-yl)-7-hydroxyisochroman-4-yl)phenyl)piperidin-4-yl)methyl)piperazin-1-yl)-1-oxoisoindolin-2-yl)piperidine-2,6-dione] | 0.24
O=C1CC[C@H](N2Cc3cc(N4CCN(CC5CCN(c6ccc([C@H]7c8ccc(O)cc8C(F)(F)C[C@H]7C7CCCC7)cc6)CC5)CC4)ccc3C2=O)C(=O)N1 [Compound I-234, (S)-3-(5-(4-((1-(4-((1S,2S)-2-cyclopentyl-4,4-difluoro-6-hydroxy-1,2,3,4-tetrahydronaphthalen-1-yl)phenyl)piperidin-4-yl)methyl)piperazin-1-yl)-1-oxoisoindolin-2-yl)piperidine-2,6-dione] | 959
Cn1nc(C2CCC(=O)NC2=O)c2cccc(N3CCN(CC4CCN(c5ccc([C@@H]6c7ccc(O)cc7CC[C@@H]6c6ccccc6)cc5)CC4)CC3)c21 (stereo partly drawn) [Compound I-189, 3-(7-(4-((1-(4-((1R,2S)-6-hydroxy-2-phenyl-1,2,3,4-tetrahydronaphthalen-1-yl)phenyl)piperidin-4-yl)methyl)piperazin-1-yl)-1-methyl-1H-indazol-3-yl)piperidine-2,6-dione] | 2
O=C1CCC(c2ccc(N3CCC4(CCN(CC5CCN(c6ccc([C@@H]7c8ccc(O)cc8CC[C@@H]7c7ccccc7)cc6)CC5)CC4)CC3)cc2)C(=O)N1 (stereo partly drawn) [Compound I-180, 3-[4-[9-[[1-[4-[(1R,2S)-6-hydroxy-2-phenyl-tetralin-1-yl]phenyl]-4-piperidyl]methyl]-3,9-diazaspiro[5.5]undecan-3-yl]phenyl]piperidine-2,6-dione] | 1.3
O=C1CC[C@H](N2Cc3cc(N4CCN(CC5CCN(c6cc(F)c([C@H]7c8ccc(O)cc8CC[C@H]7C7CCCCC7)c(F)c6)CC5)CC4)ccc3C2=O)C(=O)N1 [Compound I-118, (S)-3-(5-(4-((1-(4-((1R,2S)-2-cyclohexyl-6-hydroxy-1,2,3,4-tetrahydronaphthalen-1-yl)-3,5-difluorophenyl)piperidin-4-yl)methyl)piperazin-1-yl)-1-oxoisoindolin-2-yl)piperidine-2,6-dione] | 600
O=C1CC[C@H](N2Cc3cc(N4CCN(CC5CCN(c6ccc([C@H]7c8ccc9[nH]ncc9c8CC[C@H]7c7ccccc7)cc6)CC5)CC4)ccc3C2=O)C(=O)N1 (single isomer, unassigned) [Compound I-44] | 7
O=C1CC[C@H](N2Cc3cc(N4CCN(CC5CCN(c6ccc([C@H]7c8ccc(O)cc8CC[C@H]7c7ccc(C(F)(F)F)cc7)cc6)CC5)CC4)ccc3C2=O)C(=O)N1 (single isomer, unassigned) [II-41] | 2
O=C1CC[C@H](N2Cc3cc(N4CCN(CC5CCN(c6ccc([C@@H]7c8ccc(O)cc8C(F)(F)C[C@@H]7c7ccccc7)cc6)CC5)CC4)ccc3C2=O)C(=O)N1 [Compound I-51, (S)-3-(5-(4-((1-(4-((1R,2S)-4,4-difluoro-6-hydroxy-2-phenyl-1,2,3,4-tetrahydronaphthalen-1-yl)phenyl)piperidin-4-yl)methyl)piperazin-1-yl)-1-oxoisoindolin-2-yl)piperidine-2,6-dione] | 0.45
O=C1CC[C@H](N2Cc3cc(N4CCN(CC5CCN(c6ccc([C@H]7c8ccc(O)cc8CC[C@H]7c7ccc(O)cc7)cc6)CC5)CC4)ccc3C2=O)C(=O)N1 [Compound I-130, (35)-3-[5-[4-[[1-[4-[(1S, 2R)-6-hydroxy-2-(4-hydroxyphenyl)tetralin-1-yl]phenyl]-4-piperidyl]methyl]piperazin-1-yl]-1-oxo-isoindolin-2-yl]piperidine-2,6-dione] | ≥ 10000
O=C1CC[C@H](N2Cc3cc(N4CCN(CC5CCN(c6ccc([C@H]7c8ccc(O)cc8CC[C@H]7C7CCCCC7)c(F)c6)CC5)CC4)ccc3C2=O)C(=O)N1 [Compound I-136, (S)-3-(5-(4-((1-(4-((1R,2S)-2-cyclohexyl-6-hydroxy-1,2,3,4-tetrahydronaphthalen-1-yl)-3-fluorophenyl)piperidin-4-yl)methyl)piperazin-1-yl)-1-oxoisoindolin-2-yl)piperidine-2,6-dione] | ≥ 10000
O=C1CCC(c2ccc3c(c2)CN(C2CCN(CC4CCN(c5ccc([C@H]6c7ccc(O)cc7CC[C@H]6c6ccccc6)cc5)CC4)CC2)CC3)C(=O)N1 (stereo in doubt) [Compound I-185, 3-(2-(1-((1-(4-((1S,2R)-6-hydroxy-2-phenyl-1,2,3,4-tetrahydronaphthalen-1-yl)phenyl)piperidin-4-yl)methyl)piperidin-4-yl)-1,2,3,4-tetrahydroisoquinolin-7-yl)piperidine-2,6-dione] | 737
O=C1CC[C@H](N2Cc3cc(N4CCN(CC5CCN(c6ccc([C@@H]7c8ccccc8CC[C@@H]7c7ccccc7)cc6)CC5)CC4)ccc3C2=O)C(=O)N1 [Compound I-47, (S)-3-(1-oxo-5-(4-((1-(4-((1R,2S)-2-phenyl-1,2,3,4-tetrahydronaphthalen-1-yl)phenyl)piperidin-4-yl)methyl)piperazin-1-yl)isoindolin-2-yl)piperidine-2,6-dione] | 79
Cn1nccc1[C@@H]1CCc2cc(O)ccc2[C@@H]1c1ccc(N2CCC(CN3CCN(c4ccc5c(c4)CN([C@H]4CCC(=O)NC4=O)C5=O)CC3)CC2)cc1 (single isomer, unassigned) [Compound I-25] | 0.02
Cn1nc(C2CCC(=O)NC2=O)c2ccc(N3CCN(CC4CCN(c5ccc([C@@H]6c7ccc(O)cc7C(F)(F)C[C@@H]6c6ccccc6)cc5)CC4)CC3)cc21 (single isomer, unassigned) [Compound I-297] | 0.74
O=C1CC[C@H](N2Cc3cc(N4CCN(CC5CCN(c6ccc([C@@H]7c8ccc(O)c(Cl)c8CC[C@@H]7c7ccccc7)cc6)CC5)CC4)ccc3C2=O)C(=O)N1 [II-65] | 4
O=C1CC[C@H](N2Cc3cc(N4CCN(CC5CCN(c6ccc([C@H]7c8ccc(O)cc8C(F)(F)C[C@H]7c7ccc(F)c(F)c7)cc6)CC5)CC4)ccc3C2=O)C(=O)N1 [Compound I-315, (S)-3-(5-(4-((1-(4-((1S,2R)-2-(3,4-difluorophenyl)-4,4-difluoro-6-hydroxy-1,2,3,4-tetrahydronaphthalen-1-yl)phenyl)piperidin-4-yl)methyl)piperazin-1-yl)-1-oxoisoindolin-2-yl)piperidine-2,6-dione] | ≥ 10000
O=C1CC[C@H](N2Cc3cc(N4CCN(CC5CCN(c6ccc([C@H]7c8ccc(O)cc8CC[C@H]7C7=CCCCC7)cc6)CC5)CC4)ccc3C2=O)C(=O)N1 (single isomer, unassigned) [Compound I-416] | 0.44
CC(C)C[C@@H]1OCc2cc(O)ccc2[C@@H]1c1ccc(N2CCC(CN3CCN(c4ccc5c(c4)CN([C@H]4CCC(=O)NC4=O)C5=O)CC3)CC2)cc1 (single isomer, unassigned) [Compound I-221] | ≥ 10000
C[C@H]1C[C@@H](CN2CCN(c3ccc4c(c3)CN(C3CCC(=O)NC3=O)C4=O)CC2)CCN1c1ccc([C@@H]2c3ccc(O)cc3CC[C@@H]2c2ccccc2)cc1 (single isomer, unassigned) [II-49] | 6
